The test system of assay [1] is prostaglandin E2 (PGE2) release by human keratinocytes. As to the kind of experiment: PGE2 release by human keratinocytes (ELISA), unstimulated, UVB or PMA stimulated. The assay is classed as cell-based. As to the method:
The objectives of the present study are to evaluate the anti-inflammatory effects of two chitosan oligosaccharides (product […] and product […]) according to the present invention, and, more particularly on prostaglandin E2 (PGE2) and IL-1β release by human keratinocytes under a UVB irradiation. […] Other plates were kept in the dark. […] After thawing and centrifugation of the medium, the content in PGE2 was measured in ELISA with a R&D Systems kit (DE0100), according to the recommended protocol of the supplier. The IL1β content was measured in ELISA with a Immunotech kit (1042), according to the recommended protocol of the supplier. The raw data were transformed and treated by the software PRISM® (Graph Pad Software). The intergroup comparisons were realized by analysis of variance (ANOVA), with the multiple comparison test […].
On the technique in general: ELISA stands for enzyme-linked immunosorbent assay.

For assay [2], the system named is C57BL/6 mice spleen lymphocytes. Nature of the assay: Stimulation of spleen lymphocytes by supernatants of treated peritoneal macrophages (MTS/PMS). The assay is classed as cell-based. On the procedure:
FIG. 1 is a graphic illustrating the levels of stimulation of the C57BL/6 mice spleen lymphocytes incubated in vitro with macrophage supernatants treated with various concentrations of chitosan oligomers and glucosamine in (A) with and without the presence of peptidoglycan (B), as measured by the activity of the mitochondrial dehydrogenase on formazan salts (MTS/PMS) after 72 hrs of incubation (n=3).
The first experiment consisted in verifying if Product W was able to induce an […] effect. With this in mind, various concentrations of Product W (10 to 160 μg/ml) were incubated with peritoneal macrophages during a 24 hour period and the immunostimulating properties of the supernatants were measured on C57BL/6 mice spleen lymphocytes. The metabolic activity of spleen lymphocytes was measured by the level of Formazan salts transformation (mitochondrial dehydrogenase: MTS/PMS). As control, the dimer of glucosamine (product A), the trimer of glucosamine (product B) and a mixture of dimer-trimer in a ratio of 40:60 (mixture AB) was also studied and the results compared with those induced by glucosamine (product D). Positive controls of pro-inflammatory substances were added, such as lipopolysaccharides of E. coli (LPS) and peptidoglycan of S. Aureus (PEP).
In a second experiment, the macrophages were stimulated by peptidoglycan, (that has a stronger activation on the inflammatory response than LPS), and the capacity of products A, B, AB and W to decrease the stimulation of the lymphocytes was evaluated. […] The reduction induced by Product W, though slight, seems stronger than that induced by glucosamine (product D).

The test system of assay [3] is IL-6 production in mice macrophages C57BL/6. Nature of the assay: IL-6 production in macrophages (ELISA). To be noted: non-activated macrophages. The assay is classed as cell-based, C57BL/6 mice. As to the method: FIG. 3 is a graphic illustrating the levels of IL-6 production in mice macrophages C57BL/6 treated in vitro with various concentrations of chitosan oligomers and glucosamine (A) with and without the presence of peptidoglycan (B), as measured by an ELISA test (n=3). […] LPS and PEP were added as positive controls. Non-activated macrophages were treated with products A, B and W and the IL-6 production was compared with the effects of glucosamine (product D). LPS and PEP were added as positive controls.

The subject of assay [4] is IL-1β release by human keratinocytes. As to the kind of experiment: IL-1β release by human keratinocytes (ELISA), unstimulated, UVB or PMA stimulated. To be noted: dexamethasone 0.1 μM. The assay is classed as cell-based. As to the method:
• Reference 1: (PGE2 induction): Indomethacin (Sigma 17378), tested at 1 μM (final) • Reference 2: (IL1β induction): Dexamethazone (Sigma D1756), tested at 0.1 μM (final) Treatments and Assays
Other plates were kept in the dark.
After thawing and centrifugation of the medium, the content in PGE2 was measured in ELISA with a R&D Systems kit (DE0100), according to the recommended protocol of the supplier. The IL1β content was measured in ELISA with a Immunotech kit (1042), according to the recommended protocol of the supplier.
The raw data were transformed and treated by the software PRISM® (Graph Pad Software). The intergroup comparisons were realized by analysis of variance (ANOVA), with the multiple comparison test DUNNETT.

Assay [5] relates to TNF-α production in C57BL/6 mice macrophages. As to the kind of experiment: TNF-α production in macrophages (ELISA). The note with it: macrophages activated by PEP. The assay is classed as cell-based. On the procedure:
LPS and PEP were added as positive controls. The first cytokine studied was tumor necrosis factor (TNF-α) which is the first cytokine produced and induces the production of the other pro-inflammatory cytokines.

The subject of assay [6] is IL-10 production in mice macrophages C57BL/6. As to the kind of experiment: IL-10 production in macrophages (ELISA). The assay is classed as cell-based, C57BL/6 mice. On the procedure:
LPS and PEP were added as positive controls. We then verified the IL-10 production levels, a very powerful anti-inflammatory cytokine. Peritoneal macrophages are normally good producers of IL-10 since a normal intestinal system requires a high immunological tolerance to operate correctly. Non-activated macrophages were incubated with the various products, as well as LPS and PEP as positive controls, during 24 hours.

[7] abbreviates: no stimulation, indomethacin 1 μM.
The mark [8] stands for this setting: supernatants of non-activated macrophages, 10 to 160 μg/ml, 24 hour.

Experimental findings from US20070167400A1, “Chitosan oligosaccharides and uses thereof” (priority 2001, published 2007) are described below.

SMILES strings stand for the structures.

For the compound `COc1ccc2c(c1)c(CC(=O)O)c(C)n2C(=O)c1ccc(Cl)cc1` [Indomethacin], the “effect on PGE2 release induced by PMA (in words)” value in assay [1] (PMA stimulation) was “totally blocked the PGE2 production/release”. Besides, the “PGE2” value in assay [1] (PMA stimulation 1 μg/ml, indomethacin 1 μM) worked out at 10 pg/mL; in assay [1] (UVB stimulation 250 mJ/cm2, indomethacin 1 μM), 7.3 pg/mL; in assay [1] (setting [7]), 0.9 pg/mL. For the same compound, the “PGE2 % (of control)” value in assay [1] (PMA stimulation, indomethacin 1 μM) is listed as 0%; in assay [1] (UVB stimulation, indomethacin 1 μM) it was 22%; in assay [1] (setting [7]) it was 8%. Further, the “effect on PGE2 release (in words)” value in assay [1] (UVB stimulation) is reported as “significantly reduced the PGE2 release”. Further, the “effect on basal PGE2 production/release (in words)” value in assay [1] (setting [7]) is “apparently totally blocked the production/release of this basal level”.

As for `N[C@H]1[C@H](O[C@H]2[C@H](O)[C@@H](N)C(O)O[C@@H]2CO)O[C@H](CO)[C@@H](O)[C@@H]1O` (stereo partly drawn) [Product A], the “effect on lymphocyte activity (in words), FIG. 1A” value (“effect on lymphocyte activity” for short) in assay [2] (non-activated macrophages, 80 μg/ml) is “slight increase”; in assay [2] (non-activated macrophages, 10 μ/ml), “slight decrease”. The “effect on IL-6 production (in words), FIG. 3A” value (from here on “effect on IL-6 production”) in assay [3] is “slightly decrease”.

On to `N[C@H]1[C@H](O[C@H]2[C@H](O)[C@@H](N)[C@H](O[C@H]3[C@H](O)[C@@H](N)C(O)O[C@@H]3CO)O[C@@H]2CO)O[C@H](CO)[C@@H](O)[C@@H]1O` (stereo partly drawn) [Product B], for which the “effect on lymphocyte stimulation induced by PEP (in words), FIG. 1B” value in assay [2] (macrophages stimulated by peptidoglycan (PEP)) is recorded as “with the weakest concentration tested was able to decrease this stimulation”. Further, the “effect on lymphocyte activity” value in assay [2] (setting [8]) is “slight stimulation with the smallest doses only”. Moreover, in assay [3], the “effect on IL-6 production” value is “increase”.

Consider `C[C@@H]1C[C@H]2[C@@H]3CCC4=CC(=O)C=C[C@]4(C)[C@@]3(F)[C@@H](O)C[C@]2(C)[C@@]1(O)C(=O)CO` [dexamethasone, Dexamethazone], for which, in assay [4] (PMA stimulation 1 μg/ml), the “IL1β” value came to 0.2 pg/mL. Besides, the “IL1β % (of control)” value in assay [4] (PMA stimulation) worked out at 5%. Besides, the “IL-1β % (of control)” value in assay [4] (no stimulation) turned out to be 8%.

As to `N[C@H]1C(O)O[C@H](CO)[C@@H](O)[C@@H]1O` (stereo partly drawn) [glucosamine], the “effect on lymphocyte activity” value in assay [2] (setting [8]) is on record as “slightly increased the lymphocyte activity”. Further, in assay [3], the “effect on IL-6 production” value was “did not modify this cytokine”. The “effect on TNF-α (in words), FIG. 2B” value was “increased the level of TNF-α” in assay [5] (10 μg/ml) and “induced a reduction” in assay [5] (highest concentration). Further, the “effect on IL-10 production (in words), FIG. 4B” value in assay [6] (macrophages activated by PEP) was “no detectable effect”. In assay [6] (non-activated macrophages, 24 hours), the “effect on IL-10 production (in words), FIG. 4A” value is recorded as “slightly increased the IL-10 production”.
